# Measured values published in US20140242151A1, “ADHESIVE SKIN PATCH” (Sekisui Chemical Co., Ltd., priority 2003, published 2014).
# Conditions: for Stable dissolution in resolvents of the invention: in 2-octyl-1-dodecanol, 2-hexyl-1-decanol, isostearyl alcohol or oleyl alcohol, temperature range of 4 to 50° C.
# Procedure: 50 or 150 parts by weight of tulobuterol was added to each of the following resolvents in such a manner that the total amount of an obtained tulobuterol solution became 1000 parts by weight: 2-octyl-1-dodecanol (manufactured by Cognis Japan Ltd., under the trade name of “EUTANOL G”), 2-hexyl-1-decanol (manufactured by Cognis Japan Ltd., under the trade name of “EUTANOL G16N”), isostearyl alcohol (manufactured by Kokyu Alcohol Kogyo Co., Ltd., under the trade name of “Isostearyl Alcohol EX”), oleyl alcohol (manufactured by Kokyu Alcohol Kogyo Co., Ltd., under the trade name of “Oleyl Alcohol VP”), cetanol (hexadecyl alcohol) (manufactured by NOF Corporation, under the trade name of “NAA-44”), isopropyl myristate (manufactured by Nikko Chemicals Co., Ltd., under the trade name of “IPM-100”), decyl oleate (manufactured by Cognis Japan Ltd., under the trade name of “CETIOL V”), medium chain triglyceride (manufactured by NOF Corporation, under the trade name of “PANACET 800”), polyethylene glycol (manufactured by Maruishi Pharmaceutical Co., Ltd., under the trade name of “MACROGOL 400 (Japanese Pharmacopoeia)”), propylene glycol (manufactured by Maruishi Pharmaceutical Co., Ltd., under the trade name of “Propylene Glycol (Japanese Pharmacopoeia)”), and liquid paraffin (manufactured by Sankei Sangyo K.K., under the trade name of “Liquid Paraffin No. 350”). Each of the thus obtained tulobuterol solutions was kept at 50° C. for 120 minutes, and was then kept at 20° C. for 24 hours, and was further kept at 4° C. for 24 hours.
# At this time, the tulobuterol solution was visually observed to see whether crystalline tulobuterol was deposited or not after the completion of each warming of the tulobuterol solution at 50, 20 or 4° C. The results are shown in Table 1 wherein the mark “◯” represents a case where crystalline tulobuterol was not observed, and the mark “X” represents a case where crystalline tulobuterol was observed.
# The solubility of each of these drugs in these resolvents was determined in the same manner as in a case where the solubility of tulobuterol in these resolvents was determined.
# 50 or 150 parts by weight of tyramine (manufactured by Tokyo Chemical Industries Co., Ltd.) was added to each of the above-mentioned resolvents (i.e., 2-octyl-1-dodecanol, isopropyl myristate, polyethylene glycol, and propylene glycol) in such a manner that the total amount of an obtained tyramine solution became 1000 parts by weight. The solubility of tyramine in these resolvents was determined in the same manner as in a case where the solubility of tulobuterol in these resolvents was determined.
structure (smiles),measurement,setting,value
CCOc1ccc(NC(C)=O)cc1 [phenacetin],Stable dissolution in resolvents of the invention,,not stably dissolved
NCCc1ccc(O)cc1 [tyramine],Stable dissolution in resolvents of the invention,,not stably dissolved
N[C@@H](Cc1ccccc1)C(=O)O [phenylalanine],Stable dissolution in resolvents of the invention,,not stably dissolved
CCCCOC(=O)[C@@H](N)Cc1ccc(O)c(O)c1 [levodopa butyl ester],Stable dissolution in resolvents of the invention,,not stably dissolved
CC(C)(C)NCC(O)c1ccccc1Cl (stereo not shown) [tulobuterol],Stable dissolution in resolvents of the invention,,stably dissolved
same,Dissolution in cetanol,"resolvent cetanol, solution kept at 50° C.",completely dissolved
CNC[C@H](O)c1ccc(O)c(O)c1 [epinephrine],Stable dissolution in resolvents of the invention,,not stably dissolved
